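Interpolation was linear, between the two tested concentrations surrounding the appropriate level; five concentrations were tested over 48 hours in 96-well plates. The concentration for 50% growth inhibition is given as GI50. TGI denotes the concentration required for complete inhibition of growth.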
Assays:
Assay in all cases: NCI anticancer screen, dose series, 48 h; in the data active = GI50 below about 0.43 µM; inactive = the rest
IGROV1 ovarian = system: IGROV1 ovarian
KM12 colon = system: KM12 colon
SR leukemia = system: SR leukemia
SK-MEL-28 melanoma = system: SK-MEL-28 melanoma
MCF7 breast = system: MCF7 breast
OVCAR-5 ovarian = system: OVCAR-5 ovarian
LOX IMVI melanoma = system: LOX IMVI melanoma
A549 NSCLC = system: A549 NSCLC
ACHN renal = system: ACHN renal
SN12C renal = system: SN12C renal
SK-MEL-5 melanoma = system: SK-MEL-5 melanoma
MDA-MB-231 breast = system: MDA-MB-231 breast
SW-620 colon = system: SW-620 colon
PC-3 prostate = system: PC-3 prostate
SNB-19 CNS = system: SNB-19 CNS
NCI-H226 lung = system: NCI-H226 lung
RPMI-8226 leukemia = system: RPMI-8226 leukemia
OVCAR-8 ovarian = system: OVCAR-8 ovarian
OVCAR-4 ovarian = system: OVCAR-4 ovarian
T-47D breast = system: T-47D breast
UACC-62 melanoma = system: UACC-62 melanoma
SK-OV-3 ovarian = system: SK-OV-3 ovarian
HOP-92 NSCLC = system: HOP-92 NSCLC
NCI/ADR-RES ovarian = system: NCI/ADR-RES ovarian
NCI-H23 lung = system: NCI-H23 lung
SNB-75 CNS = system: SNB-75 CNS
HL-60(TB) leukemia = system: HL-60(TB) leukemia
DU-145 prostate = system: DU-145 prostate
HS 578T breast = system: HS 578T breast
CAKI-1 renal = system: CAKI-1 renal
MOLT-4 leukemia = system: MOLT-4 leukemia
HCT-15 colon = system: HCT-15 colon
786-0 renal = system: 786-0 renal
CCRF-CEM leukemia = system: CCRF-CEM leukemia
UO-31 renal = system: UO-31 renal
TK-10 renal = system: TK-10 renal
OVCAR-3 ovarian = system: OVCAR-3 ovarian
COLO 205 colon = system: COLO 205 colon
HOP-62 NSCLC = system: HOP-62 NSCLC
HCT-116 colon = system: HCT-116 colon
NCI-H522 lung = system: NCI-H522 lung
A498 renal = system: A498 renal
BT-549 breast = system: BT-549 breast
SF-539 CNS = system: SF-539 CNS
HCC-2998 colon = system: HCC-2998 colon
MDA-MB-435 = system: MDA-MB-435
MALME-3M melanoma = system: MALME-3M melanoma
HT29 colon = system: HT29 colon
M14 melanoma = system: M14 melanoma
K-562 leukemia = system: K-562 leukemia
SF-268 CNS = system: SF-268 CNS
NCI-H460 lung = system: NCI-H460 lung
SK-MEL-2 melanoma = system: SK-MEL-2 melanoma
RXF 393 renal = system: RXF 393 renal

CC(=O)OC1CC(C)c2c(Cl)ncnc21 (stereo not drawn)
inactive: GI50 (IGROV1 ovarian) > 100 µM | GI50 (KM12 colon) > 100 µM | GI50 (SR leukemia) 78.2 µM | GI50 (SK-MEL-28 melanoma) > 100 µM | GI50 (MCF7 breast) > 100 µM | GI50 (OVCAR-5 ovarian) > 100 µM | GI50 (LOX IMVI melanoma) > 100 µM | GI50 (A549 NSCLC) > 100 µM | GI50 (ACHN renal) > 100 µM | GI50 (SN12C renal) > 100 µM | GI50 (SK-MEL-5 melanoma) > 100 µM | GI50 (MDA-MB-231 breast) > 100 µM | GI50 (SW-620 colon) > 100 µM | GI50 (PC-3 prostate) > 100 µM | GI50 (SNB-19 CNS) > 100 µM | GI50 (NCI-H226 lung) > 100 µM | GI50 (RPMI-8226 leukemia) > 100 µM | GI50 (OVCAR-8 ovarian) > 100 µM | GI50 (OVCAR-4 ovarian) > 100 µM | GI50 (T-47D breast) > 100 µM | GI50 (UACC-62 melanoma) > 100 µM | GI50 (SK-OV-3 ovarian) > 100 µM | GI50 (HOP-92 NSCLC) > 100 µM | GI50 (NCI/ADR-RES ovarian) > 100 µM | GI50 (NCI-H23 lung) > 100 µM | GI50 (SNB-75 CNS) > 100 µM | GI50 (HL-60(TB) leukemia) > 100 µM | GI50 (DU-145 prostate) > 100 µM | GI50 (HS 578T breast) > 100 µM | GI50 (CAKI-1 renal) 45.7 µM | GI50 (MOLT-4 leukemia) > 100 µM | GI50 (HCT-15 colon) > 100 µM | GI50 (786-0 renal) > 100 µM | GI50 (CCRF-CEM leukemia) 50.1 µM | GI50 (UO-31 renal) > 100 µM | GI50 (TK-10 renal) > 100 µM | GI50 (OVCAR-3 ovarian) > 100 µM | GI50 (COLO 205 colon) > 100 µM | GI50 (HOP-62 NSCLC) > 100 µM | GI50 (HCT-116 colon) > 100 µM | GI50 (NCI-H522 lung) 18 µM | GI50 (A498 renal) > 100 µM | GI50 (BT-549 breast) > 100 µM | GI50 (SF-539 CNS) > 100 µM | GI50 (HCC-2998 colon) > 100 µM | GI50 (MDA-MB-435) > 100 µM | GI50 (MALME-3M melanoma) > 100 µM | GI50 (HT29 colon) > 100 µM | GI50 (M14 melanoma) > 100 µM | GI50 (K-562 leukemia) > 100 µM | GI50 (SF-268 CNS) > 100 µM | GI50 (NCI-H460 lung) > 100 µM | GI50 (SK-MEL-2 melanoma) > 100 µM | GI50 (RXF 393 renal) > 100 µM
41.7 µM: TGI (NCI-H522 lung)
> 100 µM: TGI (IGROV1 ovarian) | TGI (KM12 colon) | TGI (SR leukemia) | TGI (SK-MEL-28 melanoma) | TGI (MCF7 breast) | TGI (OVCAR-5 ovarian) | TGI (LOX IMVI melanoma) | TGI (A549 NSCLC) | TGI (ACHN renal) | TGI (SN12C renal) | TGI (SK-MEL-5 melanoma) | TGI (MDA-MB-231 breast) | TGI (SW-620 colon) | TGI (PC-3 prostate) | TGI (SNB-19 CNS) | TGI (NCI-H226 lung) | TGI (RPMI-8226 leukemia) | TGI (OVCAR-8 ovarian) | TGI (OVCAR-4 ovarian) | TGI (T-47D breast) | TGI (UACC-62 melanoma) | TGI (SK-OV-3 ovarian) | TGI (HOP-92 NSCLC) | TGI (NCI/ADR-RES ovarian) | TGI (NCI-H23 lung) | TGI (SNB-75 CNS) | TGI (HL-60(TB) leukemia) | TGI (DU-145 prostate) | TGI (HS 578T breast) | TGI (CAKI-1 renal) | TGI (MOLT-4 leukemia) | TGI (HCT-15 colon) | TGI (786-0 renal) | TGI (CCRF-CEM leukemia) | TGI (UO-31 renal) | TGI (TK-10 renal) | TGI (OVCAR-3 ovarian) | TGI (COLO 205 colon) | TGI (HOP-62 NSCLC) | TGI (HCT-116 colon) | TGI (A498 renal) | TGI (BT-549 breast) | TGI (SF-539 CNS) | TGI (HCC-2998 colon) | TGI (MDA-MB-435) | TGI (MALME-3M melanoma) | TGI (HT29 colon) | TGI (M14 melanoma) | TGI (K-562 leukemia) | TGI (SF-268 CNS) | TGI (NCI-H460 lung) | TGI (SK-MEL-2 melanoma) | TGI (RXF 393 renal)
